In paper PMC3648545, “A Phenylalanine to Serine Substitution within an O-Protein Mannosyltransferase Led to Strong Resistance to PMT-Inhibitors in Pichia pastoris” (PLoS ONE, 2013):

Molecular target: T1, Pmt2p (PpPmt2p) (Komagataella phaffii, UniProt F2QTJ8)
T1 construct: gene PMT2; full-length native integral ER membrane protein in intact cells (chromosomal PMT2); Pmt1p-Pmt2p heterodimer, other PMTs also present; with Dolichyl-phosphate-mannose--protein mannosyltransferase 1
Test: HPAEC-PAD of O-mannosylglycan site occupancy on mAb#[…] secreted by intact cells
Type: cell-based
Details: fed-batch fermentation, PMTi-4 8 µM (Figure 4 legend; Discussion prints 8 mM); read-out is total O-mannosylation by all PMTs, not isolated Pmt2p; direct binding not shown

T1 sequence (F2QTJ8 entry or part of it): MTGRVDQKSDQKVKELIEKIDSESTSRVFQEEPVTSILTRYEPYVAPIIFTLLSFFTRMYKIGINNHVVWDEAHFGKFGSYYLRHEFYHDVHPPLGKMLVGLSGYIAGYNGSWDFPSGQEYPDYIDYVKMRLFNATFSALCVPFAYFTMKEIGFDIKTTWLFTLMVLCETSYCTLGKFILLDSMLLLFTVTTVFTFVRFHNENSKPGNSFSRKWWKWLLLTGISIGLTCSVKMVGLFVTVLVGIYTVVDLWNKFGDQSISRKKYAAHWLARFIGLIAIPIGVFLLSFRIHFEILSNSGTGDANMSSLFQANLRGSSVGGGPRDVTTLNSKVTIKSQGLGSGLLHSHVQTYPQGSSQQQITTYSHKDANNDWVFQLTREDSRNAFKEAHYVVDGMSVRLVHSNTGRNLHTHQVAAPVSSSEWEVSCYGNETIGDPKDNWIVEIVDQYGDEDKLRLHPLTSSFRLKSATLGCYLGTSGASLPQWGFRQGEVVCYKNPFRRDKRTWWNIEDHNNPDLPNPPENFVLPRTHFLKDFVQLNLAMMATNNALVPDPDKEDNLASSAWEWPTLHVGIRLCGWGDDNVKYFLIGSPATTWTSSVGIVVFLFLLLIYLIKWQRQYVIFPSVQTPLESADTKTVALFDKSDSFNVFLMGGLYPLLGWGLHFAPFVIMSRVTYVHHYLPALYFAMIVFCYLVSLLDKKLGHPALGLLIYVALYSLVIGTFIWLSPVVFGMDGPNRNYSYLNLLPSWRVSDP

## PMTi-4
  O-mannosylglycan site occupancy: 3.1 O-mannose chains per mAb H2L2 (56 without inhibitor)
